The values below come from patent publication US20230194472A1, “MICRORNA ANALYSIS USING TUNNELING CURRENT” (Osaka University, priority 2019, published 2023).

Assay [1] deals with 5-fluorouracil (5-FU) resistant strain of colon cancer cell strain DLD-1. Kind of assay: IC50 measurement on 5-fluorouracil resistant strain derived from DLD-1. It counts as cell-based. As to conditions: Homo sapiens; DLD-1 maintained 6 months or longer in the presence of 5-fluorouracil; confirmed resistant strain; read-out: IC50 with respect to 5-fluorouracil for the cultured cells.

In assay [2] the test system is trifluridine (FTD) resistant strain of colon cancer cell strain DLD-1. Kind of assay: IC50 measurement on trifluridine resistant strain derived from DLD-1. Format: cell-based. As to conditions: Homo sapiens; DLD-1 maintained 6 months or longer in the presence of trifluridine; confirmed resistant strain; read-out: IC50 with respect to trifluridine for the cultured cells. As to the method:
Quantitative analysis of a microRNA was performed by tunneling current measurement. Colon cancer cell strain (DLD1) and 5-fluorouracil (5-FU) or trifluridine (FTD) resistant strains were used as samples.
Cancer cell strain DLD-1 obtained from a cell bank was maintained in a culture for 6 months or longer in the presence of trifluridine or 5-fluorouracil (Aldrich-Sigma) (about […]). The maintained culture was passaged about twice a week to maintain 60 to 80% confluence at 37° C. in a
DMEM medium supplemented with 10% serum on a plastic dish.

As a reminder, the IC50 is the concentration that gives 50% inhibition. As to `O=c1[nH]cc(F)c(=O)[nH]1` [5-fluorouracil], the IC50 in assay [1] stood at 300 µM.

As to `O=c1[nH]c(=O)n([C@H]2C[C@H](O)[C@@H](CO)O2)cc1C(F)(F)F` [trifluridine], in assay [2], the IC50 amounted to 300 µM.
